Results from patent US20230119479A1, “A HISTONE DEACETYLASE INHIBITOR HAVING A NITROGEN-CONTAINING AROMATIC HETEROCYCLYL GROUP” (SHIONOGI & CO., LTD., priority 2019, published 2023).
Read-outs that look alike come from different tables or passages of the source.

Molecular target: T1, HDAC2 Human recombinant C-terminal FLAG-tag (Homo sapiens, UniProt Q92769)
T1 construct: FLAG (C); purchased BPS Bioscience 50052
Assay: Measurement of HDAC2 enzyme inhibitory activity (HTRF)
Type: biochemical
Settings: recombinant HDAC2, H3K9ac peptide
Description: Test Example 1: Measurement of HDAC2 Enzyme Inhibitory Activity
The HDAC2 enzyme inhibitory activity was measured by the method described in the following test example.
To each well of a 384-well plate (Corning, 4514), DMSO solution of the test compound was dispensed at 50 nL/well from a final concentration of 99 μM to 8 points (n=2) in the 3-fold dilution series using Echo555 (Beckman Coulter). 2.5 μl of 0.005 mg/mL recombinant enzyme HDAC2 (HDAC2 Human recombinant C-terminal FLAG-tag, BPS Bioscience, 50052) was added to each well, 2.5 μl of 0.6 μM H3K9ac peptide (Lys(Ac)9-Histone H3 (1-21)-GGK(Biotin), AnaSpec, 64361) was added, mixed, and reacted in a wet box at room temperature for 3 hours. 50 mM Tris HCL pH8.0, 137 mM sodium chloride, 2.7 mM potassium chloride, 1 mM magnesium chloride, 0.01% Tween20, and 0.1% BSA which were diluted with ultrapure water were used as a reaction buffer at this time. After the reaction, 5 μL of 10 μM SAHA (suberoylanilide hydroxamic acid) as a reaction terminator and the 5 μL of a mixture of 2.5 ng of H3K9me0 antibody (ActiveMotif, 61399) labeled in-house with europium cryptate (Cisbio, 65EUSABA) and 125 nM streptavidin-XL665 (Cisbio, 610SAXLA) as an HTRF (time-resolved fluorescence) reagent were added to each well, mixed, and allowed to stand in a wet box at room temperature for reaction. A detection buffer used at this time was 50 mM Tris HCL pH 8.0, 0.8 M potassium fluoride, and 0.1% BSA which were diluted with ultrapure water. After reacting for 2 hours or more, HTRF was measured using a multi-plate reader such as SpectraMax Paradigm (MOLECULAR DEVICE) or RUBYstar (BMG LABTECH). Ratio (665 nm/615-620 nm×10000) was calculated from the fluorescence values of two wavelengths, 615-620 nm and 665 nm, which were excited at 320-340 nm, and the energy transition was obtained.

[1] = 3 hours room temperature, read-out: HDAC2 IC50

T1 sequence (Q92769 whole entry): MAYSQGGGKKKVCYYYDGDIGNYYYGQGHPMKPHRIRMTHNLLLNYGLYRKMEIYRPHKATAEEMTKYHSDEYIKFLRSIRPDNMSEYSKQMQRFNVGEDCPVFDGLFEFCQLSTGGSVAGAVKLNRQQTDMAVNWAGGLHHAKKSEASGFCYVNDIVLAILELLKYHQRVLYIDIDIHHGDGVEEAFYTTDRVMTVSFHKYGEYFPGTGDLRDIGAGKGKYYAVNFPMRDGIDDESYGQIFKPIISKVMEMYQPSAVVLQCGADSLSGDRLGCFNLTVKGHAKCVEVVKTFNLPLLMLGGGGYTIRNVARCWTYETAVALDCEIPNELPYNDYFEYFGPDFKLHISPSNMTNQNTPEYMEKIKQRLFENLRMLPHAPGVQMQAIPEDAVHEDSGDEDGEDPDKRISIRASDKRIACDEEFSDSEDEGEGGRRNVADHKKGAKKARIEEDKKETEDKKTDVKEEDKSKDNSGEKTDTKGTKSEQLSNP

IC50 [1] [nM] | IC50 (read-out: IC50 (HDAC2)) [nM] | SMILES
210 |  | CC(C)Oc1ccc(C(=O)Nc2cc(-c3cnn(C)c3)ccc2N)nc1 [Compound I-163]
120 |  | Cn1cc(-c2cnc(C(=O)Nc3cc(-c4ccco4)ccc3N)cn2)cn1 [Compound I-008]
120 |  | Cc1ccc(C(=O)Nc2cc(-c3ccc(F)nc3)ccc2N)nc1 [Compound I-154]
200 |  | CC(C)Oc1ccc(C(=O)Nc2cc(-c3ccc(F)nc3)ccc2N)nn1 [Compound I-289]
230 |  | CC#Cc1ccc(C(=O)Nc2cc(-c3cncs3)ccc2N)nc1 [Compound I-094]
430 |  | Cc1cnc(C(=O)Nc2nc(-n3cccc3)ccc2N)cn1 [Compound I-171]
270 |  | Cn1cc(-c2ccc(C(=O)Nc3cc(-n4cccn4)ccc3N)nc2)cn1 [Compound I-063]
180 |  | Nc1ccc(-c2ccc(F)nc2)cc1NC(=O)c1cnc2[nH]ccc2n1 [Compound I-086]
96 |  | Cn1cc(-c2cnc(C(=O)Nc3cc(-c4cccs4)ccc3N)cn2)cn1 [Compound I-007]
310 |  | CN(C)c1cnc(C(=O)Nc2nc(-c3ccccc3)ccc2N)cn1 [Compound I-213]
 | 120 | CC(=O)Nc1cnc(C(=O)Nc2cc(-c3cnn(C)c3)ccc2N)cn1 [Compound I-309]
110 |  | Nc1ccc(-c2ccc(F)nc2)cc1NC(=O)c1ccc(C2COC2)cn1 [Compound I-246]
120 |  | CCc1ccc(C(=O)Nc2cc(-c3ccc(F)nc3)ccc2N)nc1 [Compound I-174]
870 |  | COc1cnc(C(=O)Nc2cc(-c3cnn(C)c3)ccc2N)nc1 [Compound I-258]
170 |  | Cn1cc(-c2ccc(N)c(NC(=O)c3cnc(NCC(F)(F)F)cn3)c2)cn1 [Compound I-292]
270 |  | Nc1ccc(-c2cncs2)cc1NC(=O)c1cc2c(cn1)OC(F)(F)O2 [Compound I-074]
 | 45 | Nc1ccc(-c2cccnc2)cc1NC(=O)c1cnc(N2CCOCC2)cn1 [Compound I-312]
340 |  | COc1cnc(C(=O)Nc2cc(-c3ccc(F)nc3)ccc2N)nc1 [Compound I-259]
110 |  | CC(C)c1cnc(C(=O)Nc2cc(-c3ccc(F)nc3)ccc2N)cn1 [Compound I-251]
170 |  | CCc1ccc(C(=O)Nc2cc(-c3cnn(C)c3)ccc2N)nc1 [Compound I-175]
48 |  | Nc1ccc(-c2ccc(F)nc2)cc1NC(=O)c1ccc2c(n1)OCO2 [Compound I-183]
80 |  | CC(C)(O)C1CN(c2cnc(C(=O)Nc3cc(-c4ccc(F)nc4)ccc3N)cn2)C1 [Compound I-284]
250 |  | COCc1ccc(C(=O)Nc2cc(-c3cnn(C)c3)ccc2N)nc1 [Compound I-207]
320 |  | Nc1ccc(-c2ccc(F)nc2)cc1NC(=O)c1ccccn1 [Compound I-113]
400 |  | Nc1ccc(-c2ccc(F)nc2)cc1NC(=O)c1ccc(F)cn1 [Compound I-089]

IC50 [1] [nM] | IC50 (read-out: IC50 (HDAC2)) [nM] | SMILES
50 |  | Nc1ccc(-c2ccc(F)nc2)cc1NC(=O)c1cnc(N2CC(O)C2)cn1 [Compound I-282]
57 |  | Cn1cc(-c2ccc(C(=O)Nc3cc(-c4cnco4)ccc3N)nc2)nn1 [Compound I-011]
200 |  | Cn1cc(-c2cnc(C(=O)Nc3cc(-c4cccs4)ccc3N)nc2)cn1 [Compound I-014]
160 |  | CCN(C)c1cnc(C(=O)Nc2cc(-c3cnn(C)c3)ccc2N)cn1 [Compound I-237]
130 |  | Nc1ccc(-n2ccc(F)c2)cc1NC(=O)c1cnc(N2CCCOCC2)cn1 [Compound I-298]
100 |  | Cn1cc(-c2cnc(C(=O)Nc3cc(-n4cccc4)ccc3N)cn2)cn1 [Compound I-013]
180 |  | C=Cc1ccc(C(=O)Nc2cc(-c3ccc(F)nc3)ccc2N)nc1 [Compound I-131]
470 |  | CCc1cnc(C(=O)Nc2nc(-c3ccccc3)ccc2N)cn1 [Compound I-260]
570 |  | Cc1ccc(C(=O)Nc2cc(-c3cnn(C)c3)ccc2N)nn1 [Compound I-257]
230 |  | Nc1ccc(-c2ccc(F)nc2)cc1NC(=O)c1cnc(Cl)cn1 [Compound I-239]
260 |  | Nc1ccc(-c2ccc(F)nc2)cc1NC(=O)c1cnccn1 [Compound I-114]
210 |  | Cn1cc(-c2ccc(C(=O)Nc3nc(-c4cncs4)ccc3N)nc2)cn1 [Compound I-061]
180 |  | Cn1cc(-c2ccc(C(=O)Nc3cc(-c4cnn(C)c4)ccc3N)nc2)cn1 [Compound I-037]
140 |  | CC(C)c1ccc(C(=O)Nc2cc(-c3ccc(F)nc3)ccc2N)nc1 [Compound I-181]
480 |  | Cn1cc(-c2cnc(C(=O)Nc3nc(-c4ccc(F)nc4)ccc3N)cn2)cn1 [Compound I-079]
50 |  | COC1CN(c2cnc(C(=O)Nc3cc(-c4ccc(F)nc4)ccc3N)cn2)C1 [Compound I-283]
90 |  | Nc1ccc(-c2ccc(F)nc2)cc1NC(=O)c1cnc(N2CCC2(CO)CCl)cn1 (centres unmarked) [Compound I-225]
100 |  | Cn1cc(-c2ccc(N)c(NC(=O)c3cnc(N4Cc5cccnc5C4)cn3)c2)cn1 [Compound I-297]
260 |  | Nc1ccc(-c2ccc(F)nc2)cc1NC(=O)c1ccc(C2CCC2)cn1 [Compound I-243]
180 |  | Nc1ccc(-c2ccc(F)nc2)cc1NC(=O)c1cnc(-n2cncn2)cn1 [Compound I-128]
84 |  | Nc1ccc(-c2ccc(F)nc2)cc1NC(=O)c1ccc(CN2CCCCC2=O)cn1 [Compound I-108]
220 |  | Nc1ccc(-c2ccc(F)nc2)cc1NC(=O)c1ccc(CO)cn1 [Compound I-192]
140 |  | Nc1ccc(-c2ccc(F)nc2)cc1NC(=O)c1ccc(N2CCC2)nn1 [Compound I-266]
150 |  | Nc1ccc(-c2ccc(F)nc2)cc1NC(=O)c1ccc(C2CC2)cn1 [Compound I-111]
61 |  | Cn1cc(-c2cnc(C(=O)Nc3cc(-c4cnco4)ccc3N)cn2)cn1 [Compound I-009]

IC50 [1] [nM] | IC50 (read-out: IC50 (HDAC2)) [nM] | SMILES
270 |  | C#Cc1ccc(C(=O)Nc2cc(-c3ccc(F)nc3)ccc2N)nc1 [Compound I-096]
130 |  | CCOc1ccc(C(=O)Nc2cc(-c3ccc(F)nc3)ccc2N)nn1 [Compound I-268]
120 |  | CN(C)c1ccc(C(=O)Nc2cc(-c3ccc(F)nc3)ccc2N)nn1 [Compound I-263]
50 |  | Nc1ccc(-c2ccc(F)nc2)cc1NC(=O)c1cnc(N2CCCOCC2)cn1 [Compound I-278]
40 |  | Nc1ccc(-c2ccc(F)nc2)cc1NC(=O)c1cnc(NCc2ccccn2)cn1 [Compound I-277]
210 |  | Nc1ccc(-c2ccc(F)nc2)cc1NC(=O)c1cnc(CF)cn1 [Compound I-134]
54 |  | Cn1cc(-c2ccc(C(=O)Nc3cc(-c4cncs4)ccc3N)nc2)nn1 [Compound I-046]
470 |  | Nc1ccc(-c2ccc(F)nc2)cc1NC(=O)c1ccc(OCC(F)(F)F)cn1 [Compound I-135]
60 |  | Nc1ccc(-c2ccc(F)nc2)cc1NC(=O)c1cnc(N2CC3(CCO3)C2)cn1 [Compound I-235]
340 |  | CC(C)Oc1ccc(C(=O)Nc2cc(-c3cnn(C)c3)ccc2N)nn1 [Compound I-293]
240 |  | CN(C)c1ccc(C(=O)Nc2cc(-c3cnn(C)c3)ccc2N)nn1 [Compound I-274]
440 |  | Nc1ccc(-c2ccc(F)nc2)cc1NC(=O)c1cccnn1 [Compound I-115]
630 |  | CN(C)c1cnc(C(=O)Nc2nc(-c3cnn(C)c3)ccc2N)cn1 [Compound I-228]
310 |  | COCc1cnc(C(=O)Nc2cc(-c3cnn(C)c3)ccc2N)cn1 [Compound I-219]
230 |  | CC(=O)Nc1ccc(C(=O)Nc2nc(-c3ccccc3)ccc2N)nc1 [Compound I-281]
 | 48 | CCC(=O)Nc1ccc(C(=O)Nc2cc(-c3ccc(F)nc3)ccc2N)nc1 [Compound I-306]
90 |  | Nc1ccc(-c2ccc(F)nc2)cc1NC(=O)c1ccc(N2CCCC2)nn1 [Compound I-271]
220 |  | Nc1ccc(-c2cncs2)cc1NC(=O)c1ccc(OC(F)(F)F)cn1 [Compound I-021]
60 |  | CN(C)c1cnc(C(=O)Nc2cc(-c3cncs3)ccc2N)cn1 [Compound I-205]
200 |  | CC(C)Oc1ccc(C(=O)Nc2cc(-c3ccc(F)nc3)ccc2N)nc1 [Compound I-162]
63 |  | Cn1cc(-c2ccc(C(=O)Nc3cc(-c4ccc(F)nc4)ccc3N)nc2)nn1 [Compound I-040]
240 |  | Cn1cc(-c2ccc(N)c(NC(=O)c3cc(-c4cnn(C)c4)on3)c2)cn1 [Compound I-197]
210 |  | COCCOc1ccc(C(=O)Nc2cc(-c3cnn(C)c3)ccc2N)nc1 [Compound I-180]
79 |  | CN(C)c1ccc(C(=O)Nc2cc(-c3ccc(F)nc3)ccc2N)nc1 [Compound I-176]
